Assay results taken from the NIST ThermoML archive (doi:10.1021/acs.jced.8b00975).

Assay: xn = mol fraction of the nth substance listed
Conditions: Liquid, Vibrating tube method

C=C(C)C(=O)OCCN(C)C [2-(dimethylamino)ethyl methylpropenoate] + CO
mass density [kg/m3]
Conditions	100 kPa	5000 kPa	10000 kPa	15000 kPa	20000 kPa	25000 kPa	30000 kPa	35000 kPa
293.15 K, x1 = 0.0227	806.56	811.24	815.62	819.73	823.64	827.39	831.04	834.64
293.15 K, x1 = 0.0807	837.79	842.2	846.3	850.16	853.82	857.37	860.86	864.36
293.15 K, x1 = 0.1196	853.33	857.5	861.44	865.18	868.77	872.24	875.62	878.97
293.15 K, x1 = 0.2003	877.11	881.14	884.9	888.45	891.85	895.18	898.5	901.87
293.15 K, x1 = 0.3189	898.63	902.57	906.24	909.71	913.03	916.26	919.46	922.7
293.15 K, x1 = 0.4003	908.22	912.08	915.72	919.18	922.49	925.73	928.92	932.12
293.15 K, x1 = 0.4502	912.84	916.76	920.42	923.87	927.16	930.33	933.44	936.53
293.15 K, x1 = 0.4914	916.03	919.88	923.47	926.87	930.13	933.31	936.47	939.66
293.15 K, x1 = 0.5451	919.46	923.35	926.95	930.34	933.58	936.74	939.88	943.07
293.15 K, x1 = 0.6446	924.39	928.12	931.65	935.02	938.27	941.45	944.62	947.8
293.15 K, x1 = 0.6899	926.07	929.92	933.48	936.82	940.01	943.12	946.23	949.4
293.15 K, x1 = 0.8265	930.1	933.94	937.53	940.91	944.15	947.29	950.41	953.56
293.15 K, x1 = 0.8957	931.56	935.27	938.82	942.24	945.55	948.77	951.92	955.03
293.15 K, x1 = 0.9213	931.89	935.76	939.37	942.76	946.01	949.17	952.32	955.5
293.15 K, x1 = 0.977	932.63	936.53	940.13	943.52	946.76	949.92	953.08	956.32
303.15 K, x1 = 0.0301	802.01	806.85	811.37	815.62	–	–	–	–
303.15 K, x1 = 0.0604	818.68	823.37	827.77	831.91	–	–	–	–
303.15 K, x1 = 0.1003	836.41	840.87	845.1	849.12	–	–	–	–
303.15 K, x1 = 0.1894	864.5	868.73	872.74	876.58	–	–	–	–
303.15 K, x1 = 0.3009	886	890.03	893.92	897.69	–	–	–	–
303.15 K, x1 = 0.4011	898.17	902.15	905.98	909.67	–	–	–	–
303.15 K, x1 = 0.4497	902.64	906.61	910.42	914.09	–	–	–	–
303.15 K, x1 = 0.5004	906.39	910.32	914.1	917.76	–	–	–	–
303.15 K, x1 = 0.5484	909.57	913.52	917.31	920.96	–	–	–	–
303.15 K, x1 = 0.6026	912.38	916.33	920.1	923.74	–	–	–	–
303.15 K, x1 = 0.701	916.45	920.39	924.17	927.81	–	–	–	–
303.15 K, x1 = 0.7881	919.15	923.04	926.8	930.44	–	–	–	–
303.15 K, x1 = 0.897	921.41	925.26	929.01	932.67	–	–	–	–
303.15 K, x1 = 0.9286	922.08	926.03	929.81	933.47	–	–	–	–
303.15 K, x1 = 0.961	922.67	926.57	930.33	933.98	–	–	–	–
